Test results from PMC7760315 (Biomolecules, 2020).
pIC50: −log10 of the molar value. Read-outs that look alike come from different tables or passages of the source.

Tests used:
[1] = biological target: T1, GlyRα1 (Homo sapiens, UniProt P23415); experiment: Two-electrode voltage clamp, Xenopus laevis oocytes expressing GlyRα1 alone; assay type: cell-based; conditions: 1 µM lipid; fast-flow
T1 construct: expressed in transfected cells; host or cells: Xenopus laevis oocytes (cRNA injection)
T1 sequence (P23415 29-457): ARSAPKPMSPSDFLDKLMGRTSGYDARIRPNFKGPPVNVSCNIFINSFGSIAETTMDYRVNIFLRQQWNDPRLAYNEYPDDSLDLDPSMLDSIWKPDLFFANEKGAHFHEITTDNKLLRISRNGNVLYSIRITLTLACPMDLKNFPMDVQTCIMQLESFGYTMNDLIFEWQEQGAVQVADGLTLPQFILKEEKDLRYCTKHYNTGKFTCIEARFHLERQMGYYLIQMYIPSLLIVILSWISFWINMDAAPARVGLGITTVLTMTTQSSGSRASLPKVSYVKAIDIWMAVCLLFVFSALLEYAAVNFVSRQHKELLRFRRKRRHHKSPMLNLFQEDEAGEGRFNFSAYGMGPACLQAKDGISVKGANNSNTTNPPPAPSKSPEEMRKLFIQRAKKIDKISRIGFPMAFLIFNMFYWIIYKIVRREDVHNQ
Excerpt: (§1) Human GlyT1b and GlyT2a WT cDNA were subcloned into the plasmid oocyte transcription vector (pOTV) and human GlyRα1, GlyRα3 and GlyRβ into pGEMHE. GlyR cDNA pGEMHE vectors were provided by Mary Collins at the University of Sydney (Sydney, Australia). Single point mutations were introduced into GlyRα1 using the Q5 site-directed mutagenesis kit (New England Biolabs (Genesearch), Arundel, Australia) with oligonucleotide primers (Merck, Sydney, Australia) containing the desired mutations. The amplified cDNA/pOTV or cDNA/pGEMHE product was then transformed in E. coli cells, and subsequently purified using the PureLink Quick Plasmid Miniprep Kit (Invitrogen by Life Technologies, Löhne, Germany), and sequenced by the Australian Genome Research Facility (Sydney, Australia). The purified plasmid DNA was linearised via the restriction enzyme, SpeI (New England Biolabs (Genesearch), Arundel, Australia) for GlyT1b and GlyT2a (henceforth referred to as GlyT1 and GlyT2 respectively) and NheI (New England Biolabs (Genesearch)) for GlyRα1, GlyRα3 and GlyRβ. Complementary RNAs were synthesised using the mMESAGE mMACHINE T7 kit (Ambion, Austin, TX, USA).
(§2) All work involving the use of animals was performed in accordance with the Australian Code of Practice for the Care and Use of Animals for Scientific Purposes and approved by the University of Sydney Animal Ethics Committee (Approval numbers 2016/970 and 2020/1704). […] The oocytes were then stored in frog Ringer’s solution (96 mM NaCl, 2 mM KCl, 1 mM MgCl2, 1.8 mM CaCl2, 5 mM HEPES, pH 7.5) which was supplemented with 2.5 mM sodium pyruvate, 0.5 mM theophylline, 50 μg/mL gentamicin and […] tetracycline. The oocytes were stored at 18 °C for 3–5 days, until transporter and receptor expression were adequate for measurement using the two-electrode voltage clamp technique.
(§3) GlyT1, GlyT2, GlyRα1, GlyRα3, GlyRα1β and GlyRα3β are electrogenic, allowing activation to be measured via the two-electrode voltage clamp technique. Oocytes were voltage clamped at −60 mV, and whole-cell currents generated by the substrate were recorded with a Geneclamp 500 amplifier (Axon Instruments, Foster City, CA, USA), digitised by a Powerlab 2/20 chart recorder (ADInstruments, Sydney, Australia). LabChart version 8 software (ADInstruments, Sydney, Australia) was used to visualise and process current traces. Recordings were performed in frog Ringer’s solution, except for low Na^+ experiments where Na^+ was replaced with choline. Oocytes were placed in an oval-shaped bath with a volume of 0.3 mL, with laminar flow around the oocyte at a rate of 12 mL min^−1 under gravity feed.
(§4) Varying concentrations of substrate or agonist were applied to cells in ND96.
(§5) Flow of the solution was stopped until the current plateaued, by manually closing a three-way valve on one end of the bath such that the solution in the bath was static and is referred to henceforth as ‘stop-flow’.

[2] = test system: GlyT2; conditions: cited from earlier work; for GlyT2 Activity: % Inhibition (1 µM): 1 µM lipid, inhibition of glycine transport; for pIC50: inhibition of glycine transport by GlyT2
[3] = test system: GlyRα1; conditions: cited from earlier work; for GlyRα1 Potentiation at EC5 (%): % stimulation of glycine EC5 caused by 1 µM lipid
[4] = test system: GlyRα1/GlyT1; experiment: Two-electrode voltage clamp, oocytes co-expressing GlyRα1/GlyT1; assay type: cell-based, human; conditions: 1 µM strychnine; for GlyT contribution to overall peak current (current in presence of strychnine as % of current without): fast-flow peak; for GlyT contribution to stopped flow current (current in presence of strychnine as % of current without): stop-flow
Excerpt: as §1, §2, §3, §4, §5

[5] = test system: GlyRα1/GlyT2; experiment: Two-electrode voltage clamp, oocytes co-expressing GlyRα1/GlyT2; assay type: cell-based, human; conditions: 1 µM strychnine; for GlyT contribution to overall peak current (current in presence of strychnine as % of current without): fast-flow peak; for GlyT contribution to stopped flow current (current in presence of strychnine as % of current without): stop-flow
Excerpt: as §1, §2, §3
(§6) Varying concentrations of substrate or agonist were applied to cells in ND96. […]

[6] = biological target: T2, GlyRα1/GlyT2 (Homo sapiens, UniProt Q9Y345); experiment: as above; assay type: cell-based; conditions: 1 µM inhibitor; fast-flow
T2 construct: expressed in transfected cells; host or cells: Xenopus laevis oocytes (cRNA co-injection)
T2 sequence (Q9Y345 1-797): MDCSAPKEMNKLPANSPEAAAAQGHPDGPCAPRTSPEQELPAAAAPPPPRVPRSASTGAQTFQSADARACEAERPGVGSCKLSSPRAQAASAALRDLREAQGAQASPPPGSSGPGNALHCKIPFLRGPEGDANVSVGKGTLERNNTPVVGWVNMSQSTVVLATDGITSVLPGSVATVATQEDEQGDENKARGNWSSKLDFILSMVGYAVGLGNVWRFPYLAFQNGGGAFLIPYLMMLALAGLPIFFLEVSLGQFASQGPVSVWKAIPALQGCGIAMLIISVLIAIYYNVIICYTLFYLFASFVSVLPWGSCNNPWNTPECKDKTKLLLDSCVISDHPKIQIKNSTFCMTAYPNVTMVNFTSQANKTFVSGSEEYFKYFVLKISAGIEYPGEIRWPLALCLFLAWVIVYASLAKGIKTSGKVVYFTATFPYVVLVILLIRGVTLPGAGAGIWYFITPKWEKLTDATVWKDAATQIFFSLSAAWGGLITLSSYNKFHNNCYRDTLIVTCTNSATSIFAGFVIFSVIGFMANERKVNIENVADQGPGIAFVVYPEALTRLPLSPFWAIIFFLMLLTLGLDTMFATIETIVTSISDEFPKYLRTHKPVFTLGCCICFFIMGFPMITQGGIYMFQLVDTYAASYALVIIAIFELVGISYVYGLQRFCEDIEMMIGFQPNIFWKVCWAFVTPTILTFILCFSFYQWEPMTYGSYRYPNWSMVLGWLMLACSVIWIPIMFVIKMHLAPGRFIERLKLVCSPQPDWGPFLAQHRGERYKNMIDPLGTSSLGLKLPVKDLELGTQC
Excerpt: as §1, §2, §3, §6

[7] = test system: GlyT2; conditions: cited from earlier work

CCCCCC/C=C\CCCCCCCCCC(=O)NCC(=O)O [C18-cis-ω7-glycine]
nH of glycine dose-response in the presence of lipid [1]: 2.8 ± 0.3 ns | GlyT2 Activity: % Inhibition (1 µM) [2]: 10.5 ± 0.02% | pIC50 [2]: < 5.00 | GlyRα1 Potentiation at EC5 (%) [3]: 184.7 ± 41.3 (5) %

CCCCCCCC/C=C\CCCCCCCC(=O)NCC(=O)O [C18-cis-ω9-glycine]
nH of glycine dose-response in the presence of lipid [1]: 2.4 ± 0.2 ns | GlyT2 Activity: % Inhibition (1 µM) [2]: 50.1 ± 0.06% | GlyT2 Activity: % Inhibition (1 µM) ([2]; listed as 18-cis-ω9-glycine): 89.6 ± 0.01% | pIC50 [2]: 7.51 | GlyT2 Activity: Max inhibition (%) ([2]; maximal level of inhibition observed): 95.0% | GlyRα1 Potentiation at EC5 (%) [3]: 84.7 ± 14.0% | GlyRα1 Potentiation at EC5 (%) ([3]; listed as 18-cis-ω9-glycine): 84.7 ± 14.0 (8) % | effect on Imax of GlyRα1 ([3]; dose-dependent): increases | effect on glycine EC50 of GlyRα1 ([3]; dose-dependent): decreases

O=C1C[C@@H]2OCC=C3CN4CC[C@]56c7ccccc7N1[C@H]5[C@H]2[C@H]3C[C@H]46 [strychnine]
GlyT contribution to overall peak current (current in presence of strychnine as % of current without) ([4]; 10 µM glycine): 53.2 ± 6.9% | GlyT contribution to stopped flow current (current in presence of strychnine as % of current without) ([4]; 10 µM glycine): 61.5 ± 13.9% | GlyT contribution to overall peak current (current in presence of strychnine as % of current without) ([4]; 30 µM glycine): 14.4 ± 1.8% | GlyT contribution to stopped flow current (current in presence of strychnine as % of current without) ([4]; 30 µM glycine): 5.2 ± 1.3% | GlyT contribution to overall peak current (current in presence of strychnine as % of current without) ([5]; 10 µM glycine): 16.6 ± 3.7% | GlyT contribution to stopped flow current (current in presence of strychnine as % of current without) ([5]; 10 µM glycine): 16.2 ± 2.1% | GlyT contribution to overall peak current (current in presence of strychnine as % of current without) ([5]; 30 µM glycine): 1.7 ± 0.4% | GlyT contribution to stopped flow current (current in presence of strychnine as % of current without) ([5]; 30 µM glycine): 1.6 ± 0.4%

COc1cc(C(=O)NCC2(N(C)C)CCCC2)cc(OC)c1OCc1ccccc1 [ORG-25543]
nH of glycine dose-response in the presence of GlyT inhibitor [6]: 2.6 ± 0.4 ns | pIC50 [7]: 7.80
